Active and inactive are the calls of the source.
Key:
[1] = target: 5-hydroxytryptamine receptor 1A (Homo sapiens, UniProt P08908); format: functional
[2] = target: Ubiquitin carboxyl-terminal hydrolase BAP1 (Homo sapiens, UniProt Q92560); assay: inhibition of BAP1 ubiquitin hydrolase activity – biochemical, dose response (AID 714); format: functional
[3] = NIH-3T3 fibroblast cytotoxicity, dose response, cytotoxicity control, cell-based, fluorescence, Alamar Blue, secondary assay (AID 2327); format: functional;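 further: NIH-3T3 mouse fibroblasts cultured with fluconazole at 8 µg/mL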
[4] = viability of uninfected HEp-2 cells – cell-based, HTS, cytotoxicity control for RSV inhibitor project, dose response (AID 2410); format: functional; conditions: human respiratory syncytial virus
[5] = target: T1, Heat shock factor protein 1 (Mus musculus, UniProt P38532); assay: decrease of HSF1-responsive luciferase luminescence – cell-based, NIH3T3, dose retest, confirmation (AID 2382); format: functional;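 further: NIH3T3 fibroblasts with HSF1-driven luciferase reporter stressed by proteasome inhibitor MG132; luminescence from HSF1-driven luciferase expression after 8 hours of MG132 stress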
T1 sequence (P38532 whole entry): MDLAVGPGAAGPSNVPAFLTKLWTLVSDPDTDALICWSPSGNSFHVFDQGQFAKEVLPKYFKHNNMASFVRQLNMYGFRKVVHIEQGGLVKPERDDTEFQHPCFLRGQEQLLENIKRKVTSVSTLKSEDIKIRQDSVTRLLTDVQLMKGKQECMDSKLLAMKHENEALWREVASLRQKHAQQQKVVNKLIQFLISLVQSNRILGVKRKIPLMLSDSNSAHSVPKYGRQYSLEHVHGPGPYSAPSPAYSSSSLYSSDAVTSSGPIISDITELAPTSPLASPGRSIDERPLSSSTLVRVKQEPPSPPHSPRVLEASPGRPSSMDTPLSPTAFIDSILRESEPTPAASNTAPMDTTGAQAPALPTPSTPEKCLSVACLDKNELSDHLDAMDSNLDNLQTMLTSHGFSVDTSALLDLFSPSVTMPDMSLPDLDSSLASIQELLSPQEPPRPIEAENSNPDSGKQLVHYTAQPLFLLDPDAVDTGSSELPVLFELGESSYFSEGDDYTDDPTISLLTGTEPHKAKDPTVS

[6] = fluconazole-exposed Candida albicans growth modulators – fluorescence, retest, confirmation (AID 2467); format: functional, cell-based
Ephrin type-A receptor 4 = Ephrin type-A receptor 4 (Mus musculus, UniProt Q03137); assay: EphA4 ligand-binding antagonists – biochemical, colorimetric, mouse EphA4, primary screen (AID 689); format: functional
[7] = target: Mitogen-activated protein kinase 10 (Homo sapiens, UniProt P53779); assay: Dose response biochemical screening assay for inhibitors of c-Jun N-Terminal Kinase 3 (JNK3). [Related pubchem assays: 746 ]
[8] = rise of 2N DNA cells, HeLa – IC50, dose response (AID 1117349); format: functional, cell-based
[9] = CellTiter-Glo luminescence survival assay, SW480 colon tumor line, concentration-response curve, half-maximal inhibitory concentration (AID 1117338); format: functional
[10] = cytotoxicity toward HCT116 cells – cell-based, CellTiter-Glo luminescence, IC50, dose response (AID 1117332); format: functional; conditions: HCT-116
[11] = SNU-C1 cell viability reduction, dose response, CellTiter-Glo luminescence (AID 1117323); format: functional, cell-based
[12] = cytotoxicity toward HT-29 cells – cell-based, CellTiter-Glo luminescence, IC50, dose response (AID 1117330); format: functional
[13] = Reduced DLD-1 viability, concentration-response, CellTiter-Glo luminescence (AID 1117352); format: functional
[14] = HCT116 cell viability decrease, GSK3B pretreatment – CellTiter-Glo, IC50, dose response (AID 1117339); format: functional; conditions: HCT-116
[15] = IC50 of insulin release inhibition, rat insulinoma INS-1E line, 5 mM glucose, cell-based (AID 1117331); format: functional
cells = format: functional, cell-based; conditions: INS-1E
[16] = rise of 4N DNA cells, HeLa – IC50, dose response (AID 1117351); format: functional, cell-based
[17] = target: T2, Tyrosine-protein phosphatase non-receptor type 7 (Homo sapiens, UniProt P35236); assay: HePTP tyrosine phosphatase activity blockers – biochemical, absorbance, leukemia target, primary screen (AID 521); format: functional
T2 sequence (P35236 whole entry): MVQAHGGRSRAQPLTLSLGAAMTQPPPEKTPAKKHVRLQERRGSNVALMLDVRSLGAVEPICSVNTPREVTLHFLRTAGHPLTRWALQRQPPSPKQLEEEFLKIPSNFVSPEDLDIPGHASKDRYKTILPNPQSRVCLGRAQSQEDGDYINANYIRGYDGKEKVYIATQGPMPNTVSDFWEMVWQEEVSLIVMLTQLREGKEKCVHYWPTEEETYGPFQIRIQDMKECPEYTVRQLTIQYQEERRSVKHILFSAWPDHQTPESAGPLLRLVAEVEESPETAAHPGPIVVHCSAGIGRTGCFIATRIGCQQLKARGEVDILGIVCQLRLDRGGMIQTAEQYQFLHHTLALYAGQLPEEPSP

[18] = target: T3, Voltage-gated N-type calcium channel alpha-1B subunit/Amyloid beta A4 precursor protein-binding family A member 1 (Homo sapiens, UniProt Q00975+Q02410); format: protein assay
[19] = target: T3, Voltage-gated N-type calcium channel alpha-1B subunit/Amyloid beta A4 precursor protein-binding family A member 1; format: protein assay; remark: listed apart in the source
[20] = target: T4, Carboxy-terminal domain RNA polymerase II polypeptide A small phosphatase 1 (Homo sapiens, UniProt Q9GZU7); assay: CTDSP1 inhibitors, concentration-response, biochemical, absorbance readout, ultra-high-throughput screen actives (AID 540297); format: functional
T4 sequence (Q9GZU7 whole entry): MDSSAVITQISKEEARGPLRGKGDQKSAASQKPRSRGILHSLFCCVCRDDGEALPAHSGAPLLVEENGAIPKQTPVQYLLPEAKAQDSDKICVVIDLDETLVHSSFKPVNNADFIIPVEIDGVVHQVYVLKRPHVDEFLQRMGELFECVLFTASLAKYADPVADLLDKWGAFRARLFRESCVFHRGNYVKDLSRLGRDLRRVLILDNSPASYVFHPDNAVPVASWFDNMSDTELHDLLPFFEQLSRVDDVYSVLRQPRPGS

Protein Tat = Protein Tat (Human immunodeficiency virus type 1 group M subtype B (isolate HXB2)(HIV-1), UniProt P04608); format: functional;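 further: tat binding to TAR RNA read out by fluorescence polarization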
[21] = target: E3 ubiquitin-protein ligase Mdm2 (Homo sapiens, UniProt Q00987); assay: MDM2-luc reporter signal enhancers, multi-concentration potency testing, MDM2 ubiquitin-protein ligase inhibitor program, whole-cell format, luminescence detection, 384-well microplate (AID 1394); format: functional;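 further: MDM2 E3 inhibitors raise luminescence so EC50 is for signal enhancement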
BJ [22] = assay: BJ-TERT fibroblast viability loss – cell-based, RAS-independent, luminescence, dose response (AID 1933); format: functional; conditions: Homo sapiens
BJ [23] = assay: cells; format: functional, cell-based; conditions: Homo sapiens
BJ [24] = assay: BJ-TERT-LT-ST fibroblast viability loss – cell-based, RAS-independent, luminescence, dose response (AID 1935); format: functional; conditions: Homo sapiens;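 further: BJ fibroblasts immortalized with TERT plus LT and ST oncogenes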
[25] = DRD fibroblast viability loss – cell-based, non-viral oncogenic, luminescence, dose response (AID 1934); format: functional; conditions: Homo sapiens
Vero [26] = assay: cells; format: functional, cell-based; conditions: Chlorocebus sabaeus
Vero [27] = assay: cells; format: functional, Chlorocebus sabaeus; conditions: Chlorocebus sabaeus, Vero
[28] = reduction of Shn3 3'UTR-driven luciferase in osteoblasts – cell-based, Clone20 osteoblasts, firefly luciferase, cherry-picked, dose response (AID 624132); format: functional;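 further: firefly luciferase luminescence from reporter carrying the Shn3 3'UTR in osteoblasts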
[29] = loss of viability in HepG2 cells – cell-based, CellTiter-Glo, cherry-picked, cytotoxicity control for Shn3 inhibitor project, dose response (AID 624134); format: functional
[30] = non-specific 3'UTR reporter inhibition in Clone20-Shn3RL – cell-based, Renilla luciferase, cherry-picked, counter-screen for Shn3 inhibitor project, dose response (AID 624133); format: functional
[31] = target: T5, COUP transcription factor 2 (Homo sapiens, UniProt P24468); assay: Luminescence-based cell-based high throughput dose response assay to identify inhibitors of COUP-TFII (NR2F2).; format: functional;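 further: HEK293 cells transiently cotransfected with COUP-TFII expression vector and reporter; luciferase reporter luminescence driven by COUP-TFII from the pX2-168 reporter plasmid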
T5 sequence (P24468 whole entry): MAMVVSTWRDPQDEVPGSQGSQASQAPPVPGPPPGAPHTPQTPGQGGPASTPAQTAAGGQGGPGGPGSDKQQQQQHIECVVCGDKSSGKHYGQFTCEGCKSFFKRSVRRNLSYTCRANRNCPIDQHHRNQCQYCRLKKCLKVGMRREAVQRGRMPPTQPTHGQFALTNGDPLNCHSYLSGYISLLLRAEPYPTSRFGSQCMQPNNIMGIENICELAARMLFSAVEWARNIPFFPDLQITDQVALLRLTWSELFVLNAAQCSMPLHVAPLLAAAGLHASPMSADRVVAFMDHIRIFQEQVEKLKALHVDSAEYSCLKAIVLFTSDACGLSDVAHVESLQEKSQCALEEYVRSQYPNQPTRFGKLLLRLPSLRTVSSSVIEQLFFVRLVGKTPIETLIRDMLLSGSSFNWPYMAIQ

[32] = A549 cell cytotoxicity, dose response, cytotoxicity control, plate reader, cherry-pick, antagonist series (AID 743412); format: functional, cell-based
[33] = toxicity toward HepG2 liver cells – cell-based, plate reader, cherry-pick, antagonist series, cytotoxicity control, dose response (AID 743416); format: functional
[34] = blockers of bursicon-stimulated LGR2 cAMP reporter – cell-based, HEK293, CRE-luciferase reporter, cherry pick, set 2, dose response (AID 743343); format: functional;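 further: transfected cells were stimulated with diluted bursicon conditioned medium after compound addition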
[35] = blockade of melanocortin 4 receptor signaling – cell-based, plate reader, cherry pick, counter-screen for LGR2 antagonist project, dose response (AID 743444); format: functional;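 further: transfected HEK 293 cells stimulated with alpha-MSH peptide; potency of inhibitors of the alpha-MSH evoked signal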
[36] = viability loss in HEK293 cells – cell-based, plate reader, cherry-picked samples, cytotoxicity control, dose response (AID 743446); format: functional
[37] = growth inhibition of yeast DHODH-expressing 3D7 parasites – SYBR Green, dry powder samples, dose response (AID 1159570); format: functional, cell-based;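 further: parasite growth measured after 72 hours of compound exposure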
[38] = toxicity to human HepG2 hepatoma cells – cell-based, plate reader, dry powder samples, cytotoxicity control, dose response (AID 1159569); format: functional;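 further: inhibitor potency with signal falling toward the positive control level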
[39] = Dd2 parasite growth inhibition in erythrocytes – SYBR Green, dry powder samples, set 9, dose response (AID 1159568); format: functional, cell-based
[40] = P. falciparum Dd2 growth inhibitors, dose response, SYBR Green, cherry-picked samples (AID 1159567); format: functional, cell-based
[41] = Dd2 malaria parasite growth inhibition potency – SYBR Green, dry powder samples, dose response (AID 1159566); format: functional, cell-based;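 further: potency for growth inhibition with lower SYBR green DNA signal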
[42] = toxicity to human hepatoma HepG2 cells – cell-based, cherry-picked samples, cytotoxicity control, dose response (AID 1159577); format: functional
[43] = Plasmodium falciparum Dd2 Sybr green parasite growth Measured in Cell-Based and Microorganism Combination System Using Plate Reader - 2153-01_Inhibitor_Dose_DryPowder_Activity_Set3.; format: functional
[44] = growth inhibition of PfATP4-mutant resistant parasites – NITD609-resistant line, SYBR Green, dry powder, dose response (AID 1159571); format: functional, cell-based;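 further: parasites synchronized at ring stage by sorbitol before testing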
[45] = viability inhibitors of stage V gametocytes – luminescence, dose response (AID 1117278); format: functional, cell-based;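 further: gametocytes exposed to compound for 24 hours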
[46] = viability loss in human Jurkat cells – cell-based, luminescence, cytotoxicity control for P. falciparum gametocyte viability project, dose response (AID 1117277); format: functional;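 further: potency reflects loss of cellular ATP meaning fewer viable cells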

T3 sequence (Q00975 whole entry): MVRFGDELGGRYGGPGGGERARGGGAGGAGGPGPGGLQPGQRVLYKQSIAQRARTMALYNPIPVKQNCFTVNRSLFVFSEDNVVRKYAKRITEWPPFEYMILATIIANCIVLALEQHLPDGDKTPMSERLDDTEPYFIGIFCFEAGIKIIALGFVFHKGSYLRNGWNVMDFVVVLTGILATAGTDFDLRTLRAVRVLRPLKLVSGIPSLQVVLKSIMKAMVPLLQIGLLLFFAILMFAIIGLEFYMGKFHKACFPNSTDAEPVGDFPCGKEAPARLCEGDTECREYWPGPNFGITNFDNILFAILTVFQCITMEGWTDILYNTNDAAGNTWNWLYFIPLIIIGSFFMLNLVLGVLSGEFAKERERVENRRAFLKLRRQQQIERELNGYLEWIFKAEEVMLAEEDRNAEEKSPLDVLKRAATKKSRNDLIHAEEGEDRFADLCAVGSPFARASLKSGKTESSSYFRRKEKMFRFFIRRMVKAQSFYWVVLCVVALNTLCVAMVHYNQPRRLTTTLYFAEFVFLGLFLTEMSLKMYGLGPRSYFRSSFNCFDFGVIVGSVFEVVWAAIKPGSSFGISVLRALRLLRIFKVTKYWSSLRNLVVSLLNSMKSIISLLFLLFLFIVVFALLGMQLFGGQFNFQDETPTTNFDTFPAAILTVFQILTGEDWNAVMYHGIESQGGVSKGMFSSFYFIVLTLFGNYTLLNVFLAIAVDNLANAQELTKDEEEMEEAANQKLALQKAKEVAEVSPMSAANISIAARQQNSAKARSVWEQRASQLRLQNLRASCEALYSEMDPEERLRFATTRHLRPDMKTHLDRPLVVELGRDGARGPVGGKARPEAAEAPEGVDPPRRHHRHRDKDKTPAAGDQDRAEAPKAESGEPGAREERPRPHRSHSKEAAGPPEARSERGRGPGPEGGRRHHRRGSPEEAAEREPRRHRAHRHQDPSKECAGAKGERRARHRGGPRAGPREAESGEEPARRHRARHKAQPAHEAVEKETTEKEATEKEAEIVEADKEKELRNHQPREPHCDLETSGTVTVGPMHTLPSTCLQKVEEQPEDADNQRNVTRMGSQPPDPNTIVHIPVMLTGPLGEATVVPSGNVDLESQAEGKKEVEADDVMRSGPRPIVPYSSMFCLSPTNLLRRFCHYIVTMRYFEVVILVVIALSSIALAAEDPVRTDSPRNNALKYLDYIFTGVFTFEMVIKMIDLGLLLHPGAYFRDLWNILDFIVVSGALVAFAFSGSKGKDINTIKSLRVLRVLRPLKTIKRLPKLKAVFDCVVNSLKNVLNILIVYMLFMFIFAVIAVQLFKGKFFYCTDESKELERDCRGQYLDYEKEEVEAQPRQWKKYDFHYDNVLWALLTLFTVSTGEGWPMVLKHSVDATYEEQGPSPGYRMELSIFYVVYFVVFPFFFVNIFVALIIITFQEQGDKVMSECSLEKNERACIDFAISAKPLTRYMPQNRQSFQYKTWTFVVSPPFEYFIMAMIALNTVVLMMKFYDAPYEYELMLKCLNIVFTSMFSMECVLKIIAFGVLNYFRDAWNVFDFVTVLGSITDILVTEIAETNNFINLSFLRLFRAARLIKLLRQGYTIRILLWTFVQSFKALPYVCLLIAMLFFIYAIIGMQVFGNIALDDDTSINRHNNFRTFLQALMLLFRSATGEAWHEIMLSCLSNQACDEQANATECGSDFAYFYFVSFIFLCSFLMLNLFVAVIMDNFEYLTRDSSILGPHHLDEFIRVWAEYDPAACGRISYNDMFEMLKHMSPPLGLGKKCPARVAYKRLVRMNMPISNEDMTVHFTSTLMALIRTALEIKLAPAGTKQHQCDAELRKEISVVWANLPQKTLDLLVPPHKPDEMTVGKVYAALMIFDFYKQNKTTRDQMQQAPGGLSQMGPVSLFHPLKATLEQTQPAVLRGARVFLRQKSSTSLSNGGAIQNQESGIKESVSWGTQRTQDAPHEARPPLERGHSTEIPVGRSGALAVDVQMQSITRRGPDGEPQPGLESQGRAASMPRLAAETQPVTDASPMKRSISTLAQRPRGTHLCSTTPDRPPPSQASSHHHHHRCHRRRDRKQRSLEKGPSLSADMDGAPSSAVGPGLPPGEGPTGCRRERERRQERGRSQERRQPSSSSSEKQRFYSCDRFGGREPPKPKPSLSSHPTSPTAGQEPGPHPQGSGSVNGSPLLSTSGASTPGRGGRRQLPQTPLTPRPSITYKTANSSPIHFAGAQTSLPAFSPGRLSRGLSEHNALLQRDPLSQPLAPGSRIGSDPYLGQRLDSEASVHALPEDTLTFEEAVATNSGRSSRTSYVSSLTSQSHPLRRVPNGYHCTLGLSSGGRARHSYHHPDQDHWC
T3 sequence (Q02410 whole entry): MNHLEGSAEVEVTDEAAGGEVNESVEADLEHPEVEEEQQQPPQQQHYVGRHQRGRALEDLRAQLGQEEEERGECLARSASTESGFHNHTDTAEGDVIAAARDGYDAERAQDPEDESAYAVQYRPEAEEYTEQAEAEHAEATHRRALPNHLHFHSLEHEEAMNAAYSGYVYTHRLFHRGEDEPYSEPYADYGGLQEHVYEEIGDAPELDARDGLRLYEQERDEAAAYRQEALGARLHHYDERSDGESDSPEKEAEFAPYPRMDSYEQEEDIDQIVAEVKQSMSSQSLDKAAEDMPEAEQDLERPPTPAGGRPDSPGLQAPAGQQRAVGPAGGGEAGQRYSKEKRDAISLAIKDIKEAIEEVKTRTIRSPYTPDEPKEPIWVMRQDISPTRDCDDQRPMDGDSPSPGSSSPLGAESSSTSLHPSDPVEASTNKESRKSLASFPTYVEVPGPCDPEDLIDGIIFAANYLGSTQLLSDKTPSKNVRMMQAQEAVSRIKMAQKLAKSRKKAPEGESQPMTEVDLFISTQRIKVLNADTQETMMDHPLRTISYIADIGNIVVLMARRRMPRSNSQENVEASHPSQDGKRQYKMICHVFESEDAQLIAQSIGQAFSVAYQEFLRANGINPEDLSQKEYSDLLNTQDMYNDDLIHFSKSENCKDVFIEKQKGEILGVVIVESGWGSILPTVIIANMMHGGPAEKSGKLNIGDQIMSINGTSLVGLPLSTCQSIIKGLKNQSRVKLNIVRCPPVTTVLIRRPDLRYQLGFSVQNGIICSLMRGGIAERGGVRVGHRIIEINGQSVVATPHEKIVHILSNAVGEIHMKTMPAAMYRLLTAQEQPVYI
Chain of Mitogen-activated protein kinase 10 (P53779 whole entry): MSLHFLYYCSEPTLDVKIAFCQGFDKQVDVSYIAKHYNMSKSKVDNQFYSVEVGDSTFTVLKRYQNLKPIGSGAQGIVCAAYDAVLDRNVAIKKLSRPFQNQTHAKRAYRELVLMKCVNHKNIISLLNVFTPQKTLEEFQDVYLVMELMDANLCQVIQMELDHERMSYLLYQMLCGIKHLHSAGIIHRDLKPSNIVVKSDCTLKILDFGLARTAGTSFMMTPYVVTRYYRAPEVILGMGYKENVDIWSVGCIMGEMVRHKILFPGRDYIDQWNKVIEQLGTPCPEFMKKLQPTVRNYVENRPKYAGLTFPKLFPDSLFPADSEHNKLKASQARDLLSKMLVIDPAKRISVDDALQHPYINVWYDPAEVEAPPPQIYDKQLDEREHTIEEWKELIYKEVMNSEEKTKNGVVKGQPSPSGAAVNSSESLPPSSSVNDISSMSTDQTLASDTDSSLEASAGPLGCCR
Chain of Protein Tat (P04608 whole entry): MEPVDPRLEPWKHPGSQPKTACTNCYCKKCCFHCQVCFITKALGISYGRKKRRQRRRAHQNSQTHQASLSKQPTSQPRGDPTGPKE
Chain of Ephrin type-A receptor 4 (Q03137 whole entry): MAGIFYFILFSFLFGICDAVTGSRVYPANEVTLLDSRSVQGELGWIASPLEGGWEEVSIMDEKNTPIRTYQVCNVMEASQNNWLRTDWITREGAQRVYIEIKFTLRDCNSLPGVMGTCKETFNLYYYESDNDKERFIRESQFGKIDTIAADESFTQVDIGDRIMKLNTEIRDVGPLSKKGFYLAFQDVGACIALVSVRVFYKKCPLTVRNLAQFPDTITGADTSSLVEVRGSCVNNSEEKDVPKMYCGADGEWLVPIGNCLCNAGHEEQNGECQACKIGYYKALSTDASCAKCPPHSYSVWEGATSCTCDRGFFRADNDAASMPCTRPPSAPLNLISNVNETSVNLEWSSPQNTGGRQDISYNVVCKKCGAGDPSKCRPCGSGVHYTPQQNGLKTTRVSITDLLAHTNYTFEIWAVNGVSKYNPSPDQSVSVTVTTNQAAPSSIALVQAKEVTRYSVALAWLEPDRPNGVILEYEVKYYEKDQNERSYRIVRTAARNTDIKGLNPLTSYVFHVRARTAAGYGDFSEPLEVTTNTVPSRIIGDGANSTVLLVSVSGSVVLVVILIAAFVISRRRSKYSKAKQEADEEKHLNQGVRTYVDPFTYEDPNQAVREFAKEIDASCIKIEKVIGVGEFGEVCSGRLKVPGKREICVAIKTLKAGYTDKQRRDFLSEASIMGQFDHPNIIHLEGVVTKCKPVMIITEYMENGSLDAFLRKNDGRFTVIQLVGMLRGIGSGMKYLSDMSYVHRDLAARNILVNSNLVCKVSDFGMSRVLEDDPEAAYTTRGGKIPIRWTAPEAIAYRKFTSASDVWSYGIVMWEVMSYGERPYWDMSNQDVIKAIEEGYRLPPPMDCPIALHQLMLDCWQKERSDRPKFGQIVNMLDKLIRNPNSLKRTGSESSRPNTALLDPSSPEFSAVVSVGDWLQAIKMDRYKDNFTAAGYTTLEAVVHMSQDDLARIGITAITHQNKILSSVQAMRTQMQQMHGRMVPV

Compound: CCN(CC)c1nc(N2CCOCC2)c(C#N)c2c1CN(C)CC2
- EC50 [1]: > 50 µM (not active)

Compound: N#Cc1c(NC(=O)CSc2nnnn2C2CCCCC2)sc2c1CCCC2
- IC50 [2]: > 50 µM (not active)

Compound: COc1ccc(NC2=Nc3ccccc3N3C2=Nc2c(c(C)nn2-c2ccc(C)cc2)C3c2cccnc2)cc1 (stereo not given)
- EC50 [3]: 53.8 µM (active)
- CC50 [4]: > 50 µM (active)
- EC50 [5]: > 195 µM (not active)
- EC50 [6]: > 38 µM (not active)
- IC50 (Ephrin type-A receptor 4): 10.4 µM (active)

Compound: CC(C)n1nc(C(=O)OCC(=O)N(C)C2CCS(=O)(=O)C2)c2ccccc2c1=O (stereo not given)
- IC50 [7]: 35.5 µM (not active)

Compound: CC(C)C[C@H](NC(=O)[C@H](Cc1ccccc1)NC(=O)c1cnccn1)B(O)O
- IC50 [8]: 0.0078 µM (active)
- IC50 [9]: 0.00513 µM (active)
- IC50 [10]: 0.00365 µM (active)
- IC50 [11]: 0.0032 µM (active)
- IC50 [12]: 0.00315 µM (active)
- IC50 [13]: 0.00636 µM (active)
- IC50 [14]: 0.00241 µM (active)

Compound: CCN(CC)CCOc1ccccc1C(=O)CCc1ccccc1 [ETAFENONE]
- IC50 [8]: > 10 µM (inactive)
- IC50 [15]: 3.89 µM (active)
- IC50 (cells): > 33.3 µM (inactive)
- IC50 [16]: > 10 µM (inactive)

Compound: CCn1c(COc2ccc(Cl)c(C)c2)nnc1SCC(=O)N1CCCC1
- IC50 [17]: > 100 µM (not active)

Compound: COc1ccc(NS(=O)(=O)c2cccc(C(=O)NNC(=O)c3cccn3C)c2)cc1
- IC50 [18]: 23.5 µM (active)
- IC50 [19]: > 50 µM (inactive)
- IC50 [20]: 5.42 µM (active)
- IC50 (Protein Tat): > 100 µM (active)

Compound: CCSc1nc2ccccc2n1C(=O)/C=C/c1ccc(OC)c(OC)c1
- EC50 [21]: 2.65 µM (active)
- EC50 (BJ [22]): > 150 µM (not active)
- EC50 (BJ [23]): > 75 µM (inconclusive)
- EC50 (BJ [24]): 13.6 µM (active)
- EC50 [25]: 5.41 µM (inconclusive)
- IC50 (Vero [26]): 10.4 µM (active)
- CC50 (Vero [27]): 20.2 µM (active)
- AC50 [28]: 0.962 µM (active)
- AC50 [29]: 47 µM (active)
- AC50 [30]: 7.89 µM (active)
- IC50 [31]: 8.54 µM (active)
- AC50 [32]: 5.61 µM (active)
- AC50 [33]: 12.9 µM (active)
- AC50 [34]: 4.61 µM (active)
- AC50 [35]: 5.86 µM (active)
- AC50 [36]: 5.58 µM (active)

Compound: COc1ccc(-c2ccc([C@H]3[C@@H](C#N)N(C(=O)NC(C)C)[C@@H]3CO)cc2)cc1
- AC50 [37]: 14.7 µM (active)
- AC50 [38]: 78 µM (active)
- AC50 [39]: 0.604 µM (active)
- AC50 [40]: 0.725 µM (active)
- AC50 [41]: 0.472 µM (active)
- AC50 [42]: > 39 µM (inactive)
- AC50 [43]: 0.511 µM (active)
- AC50 [44]: 0.528 µM (active)

Compound: CC(CC(=O)Nc1ccc(F)c([N+](=O)[O-])c1)c1ccccc1 (stereo not given)
- IC50 [45]: > 109 µM (inactive)
- IC50 [46]: > 83.3 µM (inactive)

From ChEMBL document CHEMBL1201862, “PubChem BioAssay data set” (2004)
